Experimental data published in patent US10065948B2, “Histone deacetylase inhibitors and compositions and methods of use thereof” (CHDI Foundation, Inc., priority 2014, dated 2018).

Columns and labels:
[1] = test system: cellular histone deacetylase enzymatic activity in Jurkat E6-1 cells; assay: Inhibition of cellular HDAC activity, Boc-Lys(Tfa)-AMC substrate (Cell Lys-TFA); format: cell-based
Description: The potency of the compounds is quantified by measuring the cellular histone deacetylase enzymatic activity using the fluorogenic substrate, Boc-Lys(Tfa)-AMC. After penetration in Jurkat E6-1 cells, the substrate is deacetylated to Boc-Lys-AMC. After cell lysis and cleavage by trypsin, the fluorophore AMC is released from the deacetylated substrate only. The fluorescence of the sample is directly related to the histone deacetylase activity in the sample.
Jurkat E6.1 cells are cultured according to standard cell culture protocols in Jurkat E6.1 Growth Media (RPMI without phenol red, 10% FBS, 10 mM HEPES, and 1 mM Sodium Pyruvate). Jurkat E6.1 cells are counted using a Coulter Counter and resuspended in Jurkat E6.1 growth media at a concentration of 75,000 cells/35 μL. 35 μL or 75,000 cells is seeded into Greiner microtitre assay plates. The plates are then incubated at 37° C. and 5% CO2 while other assay components are being prepared.
Stocks of 70 μL aliquots of the 10 mM compound in DMSO are prepared and stored at −20° C. From one stock aliquot of each compound to be tested and the reference compound, a 16-point serial dilution is prepared according to Table 1 using a 125 μL 16-channel Matrix multi-channel pipette.
2 μL (200×) of each diluted solution and each control (full activity: 100% DMSO alone or full inhibition 1 mM) is stamped into V-bottom polypropylene 384-well compound plates using either the Bravo, Janus, or 12.5 μL 16-channel Matrix multi-channel pipette. Each well with the 200× compound solution is diluted 1:20 by the addition of 38 μL Jurkat assay buffer+DMSO (9.5% DMSO, RPMI without phenol red, 0.09% FBS, 9 mM Hepes, and 0.9 mM Sodium Pyruvate equilibrated to room temperature)
5× (500 μM) substrate is prepared just prior to the addition to the assay. The 5× substrate is prepared by diluting a 100 mM Boc-Lys(Tfa)-AMC in DMSO solution 1:200 by adding it drop-wise to Jurkat assay medium (RPMI without phenol red, 0.1% FBS, 10 mM Hepes, and 1 mM Sodium Pyruvate equilibrated to 37° C.) while vortexing at slow speed to prevent precipitation.
10 mL of 3× lysis buffer is prepared with 8.8 ml of 3× stock lysis buffer (50 mM Tris-HCl, pH 8.0, 137 mM NaCl, 2.7 mM KCl, 1 mM MgCl2, 1% Nonidet P40 Substitute equilibrated to room temperature) and 1.2 mL of 3 mg/mL Trypsin equilibrated to room temperature.
5 μL of each solution of 1:20 diluted compound from above is transferred to the Greiner microtitre assay plates with 75,000 cells/well using the Bravo. Cells are then incubated for 2 hours at 37° C. and 5% CO2. […] The cells are then incubated for 3 hours at 37° C. and 5% CO2. Next, 25 μL of 3× lysis buffer is added to each well using either the 125 μL 16 channel pipette or the Bravo. The assay plate is then incubated overnight (15-16 hours) at 37° C. and 5% CO2. The following day, the plates are shaken on an orbital shaker for 1 minute at 900 rpm. Finally the top read fluorescence (Excitation: 355 nm, Emission: 460 nm) is measured using PerkinElmer EnVision.

[2] = test system: cellular histone deacetylase activity (Lys-Ac); assay: Inhibition of cellular HDAC activity (Cell Lys-Ac); format: cell-based; conditions: Lys-Ac substrate
[3] = Homo sapiens, Jurkat E6.1, Lys-TFA substrate

| IC50 ([1]; Lys-TFA substrate) | IC50 [2] | IC50 [1, 3] | SMILES |
| --- | --- | --- | --- |
| – | > 50000 nM | 210 nM | Cc1c(F)cccc1[C@]1(C(=O)NO)Cc2cnc(C3CC3)nc2C1 [Example 52, (S)-2-Cyclopropyl-6-(3-fluoro-2-methylphenyl)-N-hydroxy-6,7-dihydro-5H-cyclopenta[d]pyrimidine-6-carboxamide] |
| – | > 50000 nM | 290 nM | Cc1c(F)cccc1[C@]1(C(=O)NO)Cc2nc(-c3ccc(F)cc3)sc2C1 [Example 67, (S)-5-(3-fluoro-2-methylphenyl)-2-(4-fluorophenyl)-N-hydroxy-5,6-dihydro-4H-cyclopenta[d]thiazole-5-carboxamide] |
| – | > 50000 nM | 5600 nM | Cc1c(F)cccc1[C@@]1(C(=O)NO)Cc2snc(-c3ccccc3)c2C1 [Example 81, E2-(abs)-5-(3-Fluoro-2-methylphenyl)-N-hydroxy-3-phenyl-5,6-dihydro-4H-cyclopenta[d]isothiazole-5-carboxamide] |
| – | > 50000 nM | 15 nM | Cc1c(F)cccc1[C@]1(C(=O)NO)Cc2cnn(-c3ccc(F)cc3Cl)c2C1 [Example 90, (S)-1-(2-Chloro-4-fluorophenyl)-5-(3-fluoro-2-methylphenyl)-N-hydroxy-1,4,5,6-tetrahydrocyclopenta[c]pyrazole-5-carboxamide] |
| – | > 50000 nM | 790 nM | Cc1c(F)cccc1[C@]1(C(=O)NO)CCc2nc(C3CC3)sc21 [Example 72, (S)-2-Cyclopropyl-6-(3-fluoro-2-methylphenyl)-N-hydroxy-5,6-dihydro-4H-cyclopenta[d]thiazole-6-carboxamide] |
| – | > 50000 nM | 134 nM | Cc1cc(F)ccc1-n1cc2c(n1)C[C@](C(=O)NO)(c1cccc(F)c1C)C2 [Example 23, (S)-5-(3-fluoro-2-methylphenyl)-2-(4-fluoro-2-methylphenyl)-N-hydroxy-2,4,5,6-tetrahydrocyclopenta[c]pyrazole-5-carboxamide] |
| 26700 nM | > 50000 nM | – | Cc1c(F)cccc1C1(C(=O)NO)CCc2nn(-c3ccccc3F)cc2C1 (single isomer, unassigned) [Example 34, E2-(abs)-5-(3-fluoro-2-methylphenyl)-2-(2-fluorophenyl)-N-hydroxy-4,5,6,7-tetrahydro-2H-indazole-5-carboxamide] |
| – | > 50000 nM | – | Cc1c(F)cccc1C1(C(=O)NO)Cc2nc(-c3cccc(F)c3)sc2C1 (single isomer, unassigned) [Example 65, E2-(abs)-5-(3-fluoro-2-methylphenyl)-2-(3-fluorophenyl)-N-hydroxy-5,6-dihydro-4H-cyclopenta[d]thiazole-5-carboxamide] |

The remaining lines, values behind:

| SMILES | IC50 ([1]; Lys-TFA substrate) | IC50 [2] | IC50 [1, 3] |
| --- | --- | --- | --- |
| Cc1c(F)cccc1C1(C(=O)NO)CCc2nn(CC(F)(F)F)cc2C1 (stereo not shown) [Example 35, 5-(3-Fluoro-2-methylphenyl)-N-hydroxy-1-(2,2,2-trifluoroethyl)-4,5,6,7-tetrahydro-1H-indazole-5-carboxamide and 5-(3-fluoro-2-methylphenyl)-N-hydroxy-2-(2,2,2-trifluoroethyl)-4,5,6,7-tetrahydro-2H-indazole-5-carboxamide] | 770 nM | > 50000 nM | – |
| Cc1cc(F)ccc1-n1ncc2c1C[C@](C(=O)NO)(c1cccc(F)c1C)C2 [Example 22, (S)-5-(3-Fluoro-2-methylphenyl)-1-(4-fluoro-2-methylphenyl)-N-hydroxy-1,4,5,6-tetrahydrocyclopenta[c]pyrazole-5-carboxamide] | – | > 50000 nM | 11 nM |
| Cc1c(F)cccc1[C@]1(C(=O)NO)Cc2cnc(-c3ccc(F)cc3)nc2C1 [Example 55, (S)-6-(3-Fluoro-2-methylphenyl)-2-(4-fluorophenyl)-N-hydroxy-6,7-dihydro-5H-cyclopenta[d]pyrimidine-6-carboxamide] | – | > 50000 nM | 260 nM |
| Cc1ccccc1-n1ncc2c1CCC(C(=O)NO)(c1cccc(F)c1C)C2 (single isomer, unassigned) [Example 38, E2-(abs)-5-(3-fluoro-2-methylphenyl)-N-hydroxy-1-(o-tolyl)-4,5,6,7-tetrahydro-1H-indazole-5-carboxamide] | 11200 nM | > 50000 nM | – |
| Cc1c(F)cccc1[C@]1(C(=O)NO)Cc2cnn(-c3ccc(Cl)cc3)c2C1 [Example 8, (S)-1-(4-Chlorophenyl)-5-(3-fluoro-2-methylphenyl)-N-hydroxy-1,4,5,6-tetrahydrocyclopenta[c]pyrazole-5-carboxamide] | – | > 50000 nM | 103 nM |
| O=C(NO)[C@@]1(c2ccccc2)CCc2ccccc21 [Example 88, E2-(abs)-N-hydroxy-1-phenyl-2,3-dihydro-1H-indene-1-carboxamide] | – | > 50000 nM | > 50000 nM |
| Cc1c(F)cccc1[C@]1(C(=O)NO)CCc2c1cnn2-c1ccccc1 [Example 54, (R)-4-(3-Fluoro-2-methylphenyl)-N-hydroxy-1-phenyl-1,4,5,6-tetrahydrocyclopenta[c]pyrazole-4-carboxamide] | – | > 50000 nM | 320 nM |
| Cc1c(F)cccc1[C@@]1(C(=O)NO)Cc2cnc(C3CC3)nc2C1 [Example 50, (R)-2-Cyclopropyl-6-(3-fluoro-2-methylphenyl)-N-hydroxy-6,7-dihydro-5H-cyclopenta[d]pyrimidine-6-carboxamide] | – | > 50000 nM | 120 nM |
| O=C(NO)C1(c2ccccc2)Cc2ccccc2C1 [Example 89, N-Hydroxy-2-phenyl-2,3-dihydro-1H-indene-2-carboxamide] | – | > 50000 nM | > 50000 nM |
| Cc1c(F)cccc1C1(C(=O)NO)Cc2nc(-c3cccc(F)c3)sc2C1 (single isomer, unassigned) [Example 64, E1-(abs)-5-(3-Fluoro-2-methylphenyl)-2-(3-fluorophenyl)-N-hydroxy-5,6-dihydro-4H-cyclopenta[d]thiazole-5-carboxamide] | – | > 50000 nM | 110 nM |
| Cc1c(F)cccc1C1(C(=O)NO)CCc2nn(-c3ccccc3F)cc2C1 (single isomer, unassigned) [Example 33, E1-(abs)-5-(3-Fluoro-2-methylphenyl)-2-(2-fluorophenyl)-N-hydroxy-4,5,6,7-tetrahydro-2H-indazole-5-carboxamide] | 410 nM | > 50000 nM | – |
| Cc1ccccc1-n1ncc2c1CCC(C(=O)NO)(c1cccc(F)c1C)C2 (single isomer, unassigned) [Example 37, E1-(abs)-5-(3-Fluoro-2-methylphenyl)-N-hydroxy-1-(o-tolyl)-4,5,6,7-tetrahydro-1H-indazole-5-carboxamide] | 86 nM | > 50000 nM | – |
| Cc1c(F)cccc1[C@@]1(C(=O)NO)Cc2nc(-c3ccc(F)cc3)sc2C1 [Example 66, (R)-5-(3-Fluoro-2-methylphenyl)-2-(4-fluorophenyl)-N-hydroxy-5,6-dihydro-4H-cyclopenta[d]thiazole-5-carboxamide] | – | > 50000 nM | 98 nM |
| Cc1c(F)cccc1[C@@]1(C(=O)NO)CCc2nc(C3CC3)ncc21 [Example 51, (S)-2-cyclopropyl-5-(3-fluoro-2-methylphenyl)-N-hydroxy-6,7-dihydro-5H-cyclopenta[d]pyrimidine-5-carboxamide] | – | > 50000 nM | 1400 nM |
| Cc1c(F)cccc1[C@]1(C(=O)NO)Cc2cnn(-c3c(F)cccc3F)c2C1 [Example 11, (S)-1-(2,6-Difluorophenyl)-5-(3-fluoro-2-methylphenyl)-N-hydroxy-1,4,5,6-tetrahydrocyclopenta[c]pyrazole-5-carboxamide] | – | > 50000 nM | 27 nM |
| Cc1c(F)cccc1[C@]1(C(=O)NO)Cc2snc(-c3ccccc3)c2C1 [Example 80, E1-(abs)-5-(3-Fluoro-2-methylphenyl)-N-hydroxy-3-phenyl-5,6-dihydro-4H-cyclopenta[d]isothiazole-5-carboxamide] | – | > 50000 nM | 45 nM |
| Cc1c(F)cccc1[C@]1(C(=O)NO)Cc2cnc(-c3cccnc3)nc2C1 [Example 60, (S)-6-(3-Fluoro-2-methylphenyl)-N-hydroxy-2-(pyridin-3-yl)-6,7-dihydro-5H-cyclopenta[d]pyrimidine-6-carboxamide] | – | > 50000 nM | 200 nM |
